The values below come from publication PMC11173422, “Substitution-Induced Mechanistic Switching in SNAr-Warheads for Cysteine Proteases” (Molecules, 2024).

Like-named read-outs stand apart in the source and are kept apart here.

Data set [1] is described as follows: Parallel artificial membrane permeability assay (PAMPA). Conditions: pH 7.4.
Procedure: An artificial membrane consisting of phosphatidylcholine dissolved in n-dodecane was employed to control equilibration between two connected aqueous compartments, of which one contained the compound of interest. This model for compound permeation through a cell membrane was incubated, and the resulting concentration in the acceptor compartment was quantified spectroscopically.
A general literature-known principle was used [11]. Propranolol hydrochloride was sourced from Changzou Yabang Pharmaceutical (Fagron GmbH & Co. KG). Candesartan cilexetil was sourced as a chemical reference standard from the EDQM (catalogue code Y0001388).
Incubation setup consisted of donor (top) plate (Sigma Aldrich, MAIPNTR10), 5 µL artificial membrane
(1 % (w/v) L-α-phosphatidyl choline, Sigma Aldrich P3556, in n-dodecane, Sigma Aldrich 8205430100),
transparent measurement plate (Greiner UV-Star®, 655801), Tecan Spark 10M® well plate reader, 200 µL
For data set [2] the following is noted: cited from earlier work.
Data set [3] in a line: Aqueous solubility observed in PAMPA set-up. Format: physicochemical. Conditions: buffered aqueous solution pH 7.4, 5% DMSO. As to the method:
acceptor (bottom) plate (Greiner, 655074). Measurement setup for direct spectroscopy consisted of UV- […]
sample volume, λ = 200–650 nm. […]
elution (0.7 mL/min). Injection volume was 100 µL. Areas of peaks in the chromatogram (detection-λ = 210 nm) were used to calculate the AUCs. Retention time and mass spectrum recorded in positive ionization mode were used to assign species. Analysis was performed using MestreNova. […]
donor plate. This was sealed (Greiner, 676070, Viewseal sealer). 400 µL of acceptor solution was applied to the acceptor plate. Incubation setup was assembled and left for 7 h. After this time, acceptor and reference solutions were analyzed.
The acceptor solutions of those were measured
P௔௣௣ = −(௏ವ ା௏ಲ )∗஺∗௧ eq. 6

The test system of another data set is Trypanosoma brucei. Also on record: method as in PMID 32210166. Conditions: cell cultures, free acid; cited from earlier work.
The target of another data set is rhodesain (Trypanosoma brucei rhodesiense, UniProt Q95PM0). Further details: stably transformed with the rhodesain ΔC gene cloned into the pPICZαA vector; made in house; host or cells: Pichia pastoris X-33 (pPICZαA, secreted into the culture supernatant); method as in PMID 32210166, PMID 34378914. The note with it: cited from earlier work.
In a further data set the target is T1, Rhodesain (TbCatL) (Trypanosoma brucei rhodesiense, UniProt Q95PM0).
T1 construct: stably transformed with the rhodesain ΔC gene cloned into the pPICZαA vector; made in house; host or cells: Pichia pastoris X-33 (pPICZαA, secreted into the culture supernatant)
Conditions: lead compound, published data ref 17; cited from earlier work.

T1 sequence (Q95PM0 entry or part of it): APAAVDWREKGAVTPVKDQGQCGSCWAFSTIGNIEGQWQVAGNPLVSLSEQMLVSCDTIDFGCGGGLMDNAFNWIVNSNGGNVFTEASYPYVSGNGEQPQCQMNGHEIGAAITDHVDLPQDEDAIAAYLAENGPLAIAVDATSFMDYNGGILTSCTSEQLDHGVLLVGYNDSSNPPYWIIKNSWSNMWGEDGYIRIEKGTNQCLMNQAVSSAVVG
Sequence of rhodesain (Q95PM0 entry or part of it): as above

For the compound `CCOc1nc2cccc(C(=O)OC(C)OC(=O)OC3CCCCC3)c2n1Cc1ccc(-c2ccccc2-c2nnn[nH]2)cc1` (centres unmarked) [Candesartan cilexetil, reference compound], in data set [1], the Papp at 7 h, 100 µM turned out to be 1.3 ± 0.2 ×10⁻⁶ cm/s. Besides, the “Lit. Papp” value in data set [2] (literature value ref 37) is 0.6 [37] ×10^−6 cm/s.

Take `CC(C)C[C@H](NC(=O)[C@H](Cc1ccccc1)Nc1ccc([N+](=O)[O-])c([N+](=O)[O-])c1)C(=O)OC(C)(C)C` [Compound 20]: the Papp at 7 h, 100 µM in data set [1] was 9.3 ± 0.7 ×10⁻⁶ cm/s. Moreover, the aqueous solubility entry in data set [3] is recorded as “poor aqueous solubility”.

In turn, `CC(C)C[C@H](NC(=O)[C@H](Cc1ccccc1)Nc1cc(F)c([N+](=O)[O-])cc1[N+](=O)[O-])C(=O)OC(C)(C)C` [Compound 21] yielded a Papp at 7 h, 100 µM in data set [1] of 3.4 ± 1.8 ×10⁻⁶ cm/s. In addition, in data set [3], the aqueous solubility result is “poor aqueous solubility”.

With `CC(C)NCC(O)COc1cccc2ccccc12` (centres unmarked) [Propranolol, reference compound], the Papp at 7 h, 100 µM in data set [1] amounted to 9.9 ± 1 ×10⁻⁶ cm/s. For the same compound, the “Lit. Papp” value in data set [2] (literature value ref 35, 36) is 8–14 [35, 36] ×10^−6 cm/s.

Take `CC(C)C[C@H](NC(=O)[C@H](Cc1ccccc1)Nc1cc([N+](=O)[O-])c([N+](=O)[O-])cc1F)C(=O)O` [Compound I]: in the data set on Trypanosoma brucei, the EC50 is 20 µM. Also, the “Adduct with rhodesain in MALDI-TOF-MS” value at rhodesain was “no adduct could be detected”. In addition, the Ki at Rhodesain (TbCatL) was 0.004 ± 0.0013 µM.
